Measurements from US9375413B2, “Methods of reducing milk somatic cell count” ([…], priority 2014, dated 2016).

Experiments:
sheep = conditions: not in gestation, one off dose; cited from earlier work
[1] = Effect of i.v. bolus on plasma arginine concentration; assay type: in vivo, sheep
Protocol: FIG. 4 is a graph from the above study illustrating plasma arginine concentrations immediately prior to (−5 min) and 30, 60 and 180 minutes following an i.v. bolus of arginine or saline (controls) in twin-bearing ewes (n=9/group) at 120 days gestation.
FIG. 5 is a graph from the above study illustrating plasma arginine concentrations 1 hour following a bolus of arginine or saline (controls) and immediately prior to slaughter at day 140 gestation in twin-bearing ewes (n=6/group).
To determine the magnitude of the increase in circulating Arg concentrations following a single bolus (3 boluses were given each day), plasma samples collected from all ewes at day 120 of gestation at time −5 (immediately prior to bolus), 30, 60 and 180 minutes following the bolus (Arg or saline) were analysed for Arg concentration using reverse-phase high-performance liquid chromatography (Sales et al., 2012). Nine ewes per treatment group were randomly selected for analysis.

[2] = test system: Twin-bearing, multiparous Romney ewes; experiment: Milk free amino acid profiles by HPLC (Example 1); assay type: in vivo, sheep; conditions: saline-treated controls compared to L-arginine treated ewes
Source text: (§1) Twin-bearing, multiparous Romney ewes were housed in individual stalls and fed once daily, a lucerne-based pellet diet formulated to meet 100% of the NRC-recommended maintenance requirements for twin-bearing pregnant and lactating ewes throughout the trial.
(§2) From day 100 of pregnancy to parturition, ewes received either an injected bolus of L-arginine-mono-hydrochloride (L-arginine-HCL; Merck KGaA, Darmstadt, Germany; 345 μmol/kg body weight (BW)) or a control being approximately the same volume of sterile saline injected three times daily (0800, 1600, 2400 hrs).
Milk free amino acids (FAA) were analysed using High-Performance Liquid Chromatography (HPLC). Skim milk (500 μL) was mixed with 500-4, lithium extraction buffer (14 g/L lithium chloride, 3 g/L lithium hydroxide, 1 g/L phenol, 50 g/L sulfosalic acid) and placed on ice for 15 to 20 min. Volumes of 10-μL lithium hydroxide (5.88 M) were added to the sample to obtain a final pH of 1.5 to 2. This was followed by centrifugation at 13,680×g for 5 min at 4° C., and the resulting supernatant was filtered through a 4 mm 0.2 μm syringe filter. The filtered sample was analysed for FAA using a Shimadzu LC 10Ai HPLC, fitted with a high-efficiency lithium-ion exchange column (3 mm i.d.×150 mm) Injected volumes were 10 μL, the reagent flow rate was 0.3 mL/min, and the run was 162 min between injections, using lithium buffers as elutants and ninhydrin post column derivatization. Free amino acid values are reported as μmol per liter of milk. Differences between treatment groups were analysed using the MIXED procedure (SAS) with a linear model that included the fixed effects of dam, dam treatment group, and the covariates average dam live weight, average dam body condition score and days in lactation were included in the model.

[3] = test system: non-gestational (and pre-ruminant) calves; conditions: cited from earlier work
twin-bearing ewes = experiment: Somatic cell count (SCC) in milk after arginine supplementation in mid-late gestation (Example 2); assay type: in vivo, sheep; conditions: for somatic cell count (SCC) lower than controls: trend P<0.15
Source text: FIG. 3 is a graph from a further study confirming the effect of arginine supplementation from 100 days gestation to birth in twin-bearing ewes on somatic cell count (SCC) in milk. Data was log transformed for analysis—back transformed values are presented.
In a second experiment ewes were supplemented with arginine during mid-late gestation that stopped at parturition.

[4] = test system: Twin-bearing, multiparous Romney ewes; experiment: Milk composition (crude protein, somatic cell count, fat, lactose) and milk yield after L-arginine supplementation from day 100 of pregnancy to parturition (Example 1); assay type: in vivo, sheep
Source text: as §1, §2
At the first sign of labour induction, which was between 1 and 10 hours (h) prior to birth, L-arginine treatment ceased and ewes were allowed to lamb naturally. In total 25 ewes were used (arginine group, n=13; control group n=12).
Ewes were assigned to milking groups based on parturition date. Collection of a colostrum sample within the 12 h post partum could have compromised animal behaviour and ewe-lamb bond formation. Therefore, a range of 0.58-1.22 days in lactation was produced when the “colostrum” sample was collected. Ewes were then milked approximately at day 1, 4, 7, 10 and 14 of lactation, using the oxytocin method. At each milking, ewes were milked by machine followed by hand stripping, after an intravenous injection of 1 IU of synthetic oxytocin (Oxytocin V, 10 IU/mL). The time when the udder was empty was recorded. Animals were milked again (machine and hand-stripping) approximately 4 h later, with the time and weight of the milk recorded. Lambs were separated from the ewes and bottle-fed as required during the intervening period, using the milk collected from their respective dam. The same operators milked all ewes on each occasion in this study using a mobile milking machine. Milk obtained after the 4 h intervening period was subsampled for analysis of milk composition (% fat, % crude protein (CP), % lactose and somatic cell count). Milk samples were preserved with bronopol and refrigerated at 4° C. until analysis using a FT120-FTIR, calibrated for sheep milk. Two reference checks (fat and CP) were taken during lactation to account for changes in the matrix of the milk due to stage of lactation. Somatic cell counts were determined using a bromide based fluorescent dye and a FOSS flow Cytometer and values log transformed. Ewes were weighed and body condition scored (scale of 1 to 5) once a week.
Throughout milking, dams and offspring were housed in individual pens immediately adjacent to each other. Daily milk yield was calculated. Repeated measures analysis of milk yield and composition using the MIXED procedure with a linear model that included the fixed effects of dam, dam treatment group, and the covariates average dam live weight, average dam body condition score and days in lactation were included in the model. From the 25 ewes available only 18 were used for statistical analysis (arginine group n=8; control group n=10).

Cl.N=C(N)NCCC[C@H](N)C(=O)O [L-arginine, L-arginine-mono-hydrochloride]
plasma white blood cell levels (sheep): increase in white blood cell levels | increase in circulating Arg concentrations ([1]; 30 minutes following single i.v. bolus, day 120 of gestation): 4 fold | plasma Arg relative to controls ([1]; 1 hour following a bolus, immediately prior to slaughter at 140 days of gestation, P<0.0001): 4.6 times higher than controls | time for circulating concentrations of Arg to return to baseline ([1]; after i.v. bolus, day 120 of gestation): ≤ 3 h | elevated circulating Arg concentrations relative to control ([1]; until at least 60 minutes post-dosage, single i.v. bolus, day 120 of gestation): 3 times the control | absolute milk free concentration of histidine ([2]; day 7 post parturition): significantly decreased in saline-treated controls | absolute milk free concentration of phenyalanine ([2]; day 7 post parturition): significantly decreased in saline-treated controls | absolute milk free concentration of tryptophan ([2]; day 7 post parturition): significantly decreased in saline-treated controls | absolute milk free concentration of tyrosine ([2]; day 7 post parturition): significantly decreased in saline-treated controls | milk free asparagine ([2]; day 14 post parturition): significantly decreased | milk free glutamate ([2]; day 14 post parturition): trends for decreased | milk free leucine ([2]; day 14 post parturition): trends for decreased | milk free tyrosine ([2]; day 14 post parturition): trends for decreased | antibody production in plasma [3]: reduction in antibody production | variation in SCC between animals (twin-bearing ewes; control compared to arginine-supplemented ewes, at each time-point and over time): greater in the control | somatic cell count (SCC) lower than controls (twin-bearing ewes; day 1 (colostrum) of lactation): 77% | somatic cell count (SCC) lower relative to controls (twin-bearing ewes; day 7 of lactation): ~75% | somatic cell count (SCC) lower than controls (twin-bearing ewes; day 10 of lactation): 53% | somatic cell count (SCC) lower relative to controls (twin-bearing ewes; day 14 of lactation): ~75% | SCC in milk (twin-bearing ewes; throughout the period of study, control ewes 787,000-2,594,000 cells/ml): 366,000-589,000 cells/ml | MSC count compared to control animals ([4]; between day 1 and day 4 post parturition and administration stopping): significantly lower | Milk somatic cell counts ([4]; day 4-14 of lactation, compared to saline-treated controls): decreased | MSC counts ([4]; ewes treated with L-arginine, untreated ewes higher than 500,000): below 300,000 | fat percentage ([4]; milk, day 1 of lactation, saline-treated controls compared to L-arginine treated ewes): trend for increased fat percentage at day 1 in saline-treated controls | Crude protein percentage ([4]; milk, day 4-7 of lactation, compared to saline-treated controls, 345 μmol/kg BW three times daily): increased | crude milk protein percentage ([4]; milk, day 14 of lactation, saline-treated controls compared to L-arginine-treated ewes): trend for increased crude milk protein percentage was observed in saline-treated controls | lactose percentage ([4]; milk, post parturition, versus saline-treated controls): No effect | duration of protective response in terms of milk somatic cell count ([4]; post administration (administration day 100 to parturition)): at least 14 days | milk yield ([4]; post parturition, versus saline-treated controls): No effect
